From patent publication US4898975A, “Water soluble organic ammonium per halides” (Great Lakes Chemical Corporation, priority 1989, dated 1990)
Where two headings read alike, the source gives them in different places. Values belong to the compound of their own block, whether it stands above or below them.

What was measured:
[1] = Vapor pressure of aqueous organic ammonium perbromides (isoteniscope); format: physicochemical; settings: for Vp: 26° C. (Table 9)
Method: The vapor pressures of the aqueous organic ammonium perbromides were measured using an isoteniscope as described by Farrington, et al. [Farrington, D.; Alberti, R.; William, S.; Corwell, C.; Bender, P; and Harriman, S. Experimental Physical Chemistry, Experiment 17, pp. 164-165, 7th Edition, McGraw Hill Publishing Co., New York, 1976].

[2] = Titration of oxidizable bromine (Standard Methods, Method 408A); format: physicochemical; settings: for Ox. Br2: of the sample used for vapor pressure (Table 9)
[3] = format: physicochemical; settings: closed bottle
Method: In order to determine the shelf life stability of the perbromide solutions, a series of studies were conducted to determine the percent bromine lost over time. The following tables shown below list the perbromides studied and the percent oxidizable bromine lost over time. The perbromides studied were kept in closed bottles in ambient conditions (Table 7) and at 50° C.

[4] = physchem; settings: water
[5] = Water solubility of perbromides
[6] = completely soluble perbromides, aqueous solution (Table 1)
[7] = 50° C., time elapsed 40 (months)
[8] = 50° C., time elapsed 40 (months), 1.752e+06 min
[9] = partially soluble perbromides, separated liquid phase (Table 2)
[10] = concentrated and anhydrous perbromides (Table 4)
[11] = higher aqueous ethanolammonium perbromides (Table 6)

Compound: CN(C)CCO [Compound 7, Dimethylethanolammonium Perbromide, reference compound]
Vp [1]: 30 mmHg

Compound: CCCN [Compound 3, Propylammonium Perbromide]
Tit. Ox. Br2 [2, 6]: 39.3 % by Weight
Vp [1]: 36 mmHg

Compound: NCCO [Compound 1, Ethanolammonium Perbromide]
Initial Ox. Br2 ([3]; 50° C.): 40.8 % by Weight
Change in % Br2 [3, 7]: 1.8%
Final Ox. Br2 [3, 7]: 39.0 % by Weight
Relative Change in % Br2 [3, 8]: 4.4%
Change in % Br2 ([3]; ambient temperature, 24 months): 1.6%
Final Ox. Br2 ([3]; ambient temperature, 24 months): 38.5 % by Weight
Relative Change in % Br2 ([3]; ambient temperature, 24 months, 1.0512e+06 min): 4.0%
Initial Ox. Br2 ([3]; ambient temperature): 40.1 % by Weight

Tit. Ox. Br2 [2, 9]: 45.1 % by Weight
solubility [4]: 100 mg/mL
Compound: CCCNCCC [Compound 10, Dipropylammonium Perbromide]

Tit. Ox. Br2 [2, 6]: 37.7 % by Weight
Compound: CCNCCO [Compound 6, Ethylethanolammonium Perbromide]

Compound: NCCO [Compound 18, Ethanolammonium Perbromide]
Tit. Ox. Br2 [2, 10]: 51.8 % by Weight

Compound: CCCCCCN [Compound 8, Hexylammonium Perbromide]
Tit. Ox. Br2 [2, 6]: 36.1 % by Weight

Compound: CCN(CC)CCO [Compound 14, Diethylethanolammonium]
Tit. Ox. Br2 [2, 9]: 42.3 % by Weight
Solubility in water (in words) [5]: only sparingly soluble in water
solubility [5]: 1 mg/mL

Relative Change in % Br2 ([3]; 29200 h): 2.7%
Relative Change in % Br2 ([3]; ambient, 17520 h): 2.3%
Compound: Propylammonium Perbromide [Compound 22]

Relative Change in % Br2 ([3]; 29200 h): 3.1%
Relative Change in % Br2 ([3]; ambient, 17520 h): 2.0%
Compound: Ethanolammonium Perbromide [Compound 21]

Compound: NCCO [Compound 27]
Tit. Ox. Br2 [2, 11]: 57.7 % by Weight
Ox. Br2 [2]: 57.7 % by Weight
Vp [1]: 116 mmHg

Compound: OCCNCCO [Compound 4, Diethanolammonium Perbromide]
Initial Ox. Br2 ([3]; 50° C.): 37.0 % by Weight
Change in % Br2 [3, 7]: 7.0%
Final Ox. Br2 [3, 7]: 30.0 % by Weight
Relative Change in % Br2 [3, 8]: 18.9%
Vp [1]: 49 mmHg

Compound: BrBr [Compound 35, Bromine, reference compound]
Ox. Br2 [2]: 100 % by Weight
vapor pressure ([1]; 26° C.): approximately 220 mm Hg
Vp [1]: 223 mmHg

Compound: NCCO [Compound 26]
Tit. Ox. Br2 [2, 11]: 52.6 % by Weight

Ox. Br2 [2]: 37.9 % by Weight
vapor pressure [1]: 140 mm Hg
Vp [1]: 145 mmHg
Compound: NaBr3 [Compound 33, reference compound]

Tit. Ox. Br2 [2, 6]: 34.7 % by Weight
Compound: CCCCCCCCN [Compound 9, Octylammonium Perbromide]

Compound: CCCN [Compound 19, Propylammonium Perbromide]
Tit. Ox. Br2 [2, 10]: 53.2 % by Weight

Compound: CCCCN(CCCC)CCCC [Compound 12, Tributylammonium Perbromide, reference compound]
Ox. Br2 [2]: 37.5 % by Weight
Tit. Ox. Br2 [2, 9]: 36.0 % by Weight
Vp [1]: 28 mmHg

Compound: OCCNCCO [Compound 20, Diethanolammonium Perbromide]
Tit. Ox. Br2 [2, 10]: 45.3 % by Weight

Ox. Br2 [2]: 43.3 % by Weight
Tit. Ox. Br2 [2, 9]: 40.9 % by Weight
Change in % Br2 ([3]; ambient temperature, 16 months): 2.1%
Final Ox. Br2 ([3]; ambient temperature, 16 months): 41.1 % by Weight
Relative Change in % Br2 ([3]; ambient temperature, 16 months, 700800 min): 4.9%
Initial Ox. Br2 ([3]; ambient temperature): 43.2 % by Weight
Vp [1]: 38 mmHg
solubility [5]: 10 mg/mL
Compound: CCCCNCCCC [Compound 11, Dibutylammonium Perbromide]

Tit. Ox. Br2 [2, 6]: 39.3 % by Weight
Ox. Br2 [2]: 39.3 % by Weight
Vp [1]: 28 mmHg
Compound: CNCCO [Compound 5, Methylethanolammonium Perbromide]

Compound: NCCO [Compound 29]
Tit. Ox. Br2 [2, 11]: 72.6 % by Weight

Compound: NCCO [Compound 28]
Tit. Ox. Br2 [2, 11]: 63.9 % by Weight

Compound: NCCCCCCN [Compound 16, 1,6-Hexanediammonium]
Tit. Ox. Br2 ([2]; perbromides precipitated out of aqueous solution (Table 3)): 51.8 % by Weight
solubility [4]: 500 mg/mL
